Results on 13 compounds are retold here after patent publication US20110003820A1, “PYRAZOLOPYRIMIDINES, A PROCESS FOR THEIR PREPARATION AND THEIR USE AS MEDICINE” (MERZ PHARMA GMBH & CO. KGaA, priority 2008, published 2011).

One assay has as its target T1, mGluR5 receptors (Rattus norvegicus, UniProt P31424).
T1 construct: Primary astrocyte cultures are prepared from cortices of newborn rats; endogenous in cells; host or cells: primary cortical astrocytes of Sprague-Dawley rat pups (2-4 d old)
Kind of assay: Cytosolic Calcium studies with astrocytes (astrocyte culture test, FLIPR). The settings on record: primary rat cortical astrocytes; L-quisqualate 100 nM; read-out: mGluR5_FLIPRr_rpA IC50. Type of assay: cell-based. The protocol:
Primary astrocyte cultures are prepared from cortices of newborn rats as described by Booher and Sensenbrenner (1972, Neurobiology 2(3):97-105). Briefly, Sprague-Dawley rat pups (2-4 d old) are decapitated and neocortices are dissected, disintegrated with a nylon filter (pore size 80 μm) and carefully triturated. The cell suspension is plated on poly-D-lysine pre-coated flasks (Costar, Netherlands) and cultivated in Dulbecco's Modified Eagle's Medium (DMEM, Invitrogen, Germany) supplemented with 10% foetal calf serum (FCS, Sigma, Germany), 4 mM glutamine and 50 μg/ml gentamycin (both Biochrom, Germany) at 37° C. in a humidified atmosphere of 5% CO2/95% air for 7 d with exchanging the medium at day 2 and 6.
After 7 days in vitro (DIV), cells are shaken overnight at 250 rpm to remove oligodendrocytes and microglia. The next day, astrocytes are rinsed twice with CMF-PBS (calcium- and magnesium-free phosphate buffered saline, Biochrom, Germany), trypsinized and subplated on poly-D-lysine pre-coated 96-well plates (Greiner, Germany) at a density of 40,000 cells/well. 24 h after establishing the secondary culture the astrocytes are rinsed with PBS^++ (phosphate buffered saline, Biochrom, Germany) and fed with astrocyte-defined medium (ADM) consisting of DMEM containing 1×G5-supplement (Invitrogen, Germany), 0.5 μg/ml heparan sulfate, and 1.5 μg/ml fibronectin (both Sigma, Germany) (Miller et al., (1993) Brain Res. 618(1):175-8). 3 d later the medium is exchanged and the cells incubated for another 2-3 d, so that at the time of experiments astrocytes are 14-15 DIV.
Cytosolic Calcium Studies with Astrocytes:
The increase of cytosolic calcium after stimulation with the mGluR5 agonist L-quisqualate is measured using a fluorometric imaging plate reader (FLIPR) and the Ca-Kit (both Molecular Devices). Prior to addition of agonist or antagonist the medium is aspirated and cells are loaded for 2 h at RT with 150 μl of loading buffer consisting of Ca-sensitive dye reconstituted in sodium chloride (123 mM), potassium chloride (5.4 mM), magnesium chloride (0.8 mM), calcium chloride (1.8 mM), D-glucose (15 mM), and HEPES (20 mM), pH 7.3. Subsequently, plates are transferred to FLIPR to detect calcium increase with the addition of L-quisqualate (100 nM) measured as relative fluorescence units (RFU). If antagonists are tested, these compounds are pre-incubated for 10 minutes at RT before addition of the respective agonist.
(§1) The fluorescence signal increase after addition of agonist reflects the increase of cytosolic calcium. Inconsistencies in the amount of cells per well are normalised by using the spatial uniformity correction of the FLIPR software. The mean of replicated temporal data (n=3-5) is calculated and used for graphical representation. For the evaluation of the pharmacology, the calcium changes in response to different concentrations of agonist or antagonist are determined using a maximum minus minimum (MaxMin) calculation.
(§2) All responses (RFU-values) are determined as percentage of control (=maximum response). EC50 and IC50 are calculated according the logistic equation using GraFit 5.0 (Erithacus Software, GB) or Prism 4.0 (GraphPad Software, USA). The compounds of the present invention have a potency (IC50) within a range of about […].

Assay [1] has as its target T2, transmembrane allosteric modulatory sites of mGluR5 receptors in cortical membranes (Rattus norvegicus, UniProt P31424).
T2 construct: from tissue; host or cells: cortex of male Sprague-Dawley rats, membrane preparation
Kind of assay: [3H]-MMPEP binding assay in rat cortical membranes. The following applies: 3H-MMPEP radioligand, read-out: mGluR5_M_MPEP_r_CTX_IC50. The protocol:
Binding Assays for the Characterization of mGluR5 Antagonists
Preparation of Rat Cortical Membranes:
Male Sprague-Dawley rats (200-250 g) are decapitated and their brains are removed rapidly. The cortex is dissected and homogenized in 20 volumes of ice-cold 0.32 M sucrose using a glass-Teflon homogenizer. The homogenate is centrifuged at 1000×g for 10 minutes. The pellet is discarded and the supernatant centrifuged at 20,000×g for 20 minutes. The resulting pellet is re-suspended in 20 volumes of distilled water and centrifuged for 20 minutes at 8000×g. Then the supernatant and the buffy coat are centrifuged at 48,000×g for 20 minutes in the presence of 50 mM Tris-HCl, pH 8.0. The pellet is then re-suspended and centrifuged two to three more times at 48,000×g for 20 minutes in the presence of 50 mM Tris-HCl, pH 8.0. All centrifugation steps are carried out at 4° C. After resuspension in 5 volumes of 50 mM Tris-HCl, pH 8.0 the membrane suspension is frozen rapidly at −80° C.
On the day of assay the membranes are thawed and washed four times by resuspension in 50 mM Tris-HCl, pH 8.0 and centrifugation at 48,000×g for 20 minutes and finally re-suspended in 50 mM Tris-HCl, pH 7.4. The amount of protein in the final membrane preparation (500-700 μg/ml) is determined according to the method of Lowry (Lowry O. H. et al. 1951. J. Biol. Chem. 193, 256-275).
Incubations are started by adding[^3H]-MPEP (50.2 Ci/mmol, 5 nM, Tocris, GB) to vials with 125-250 μg protein (total volume 0.25 ml) and various concentrations of the agents.
Alternatively, assays are performed with [^3H]-MMPEP (2-(3-methoxyphenylethynyl)-6-methylpyridine hydrochloride) as radioligand. The incubations are continued at room temperature for 60 minutes (equilibrium is achieved under the conditions used). […] Incubations are terminated using a Millipore filter system. The samples are rinsed twice with 4 ml of ice-cold assay buffer over glass fibre filters (Schleicher & Schuell, Germany) under a constant vacuum. Following separation and rinse, the filters are placed into scintillation liquid (5 ml Ultima Gold, Perkin Elmer, Germany) and radioactivity retained on the filters is determined with a conventional liquid scintillation counter (Can berra Packard, Germany).

In assay [2] the target is T3, metabotropic glutamate receptor (mGluR5) (Homo sapiens, UniProt P41594). Kind of assay: Cytosolic Calcium studies with stably transfected cells (FLIPR, CHO-K1). Format: cell-based. Details: expressed in transfected cells; host or cells: CHO-K1 cells, IPTG-inducible expression. The following applies: CHO-K1 cells expressing human mGluR5; agonist L-quisqualic acid at ~80% of maximal signal; read-out: mGluR5_FLIPR_h_CHO_NAM IC50. On the procedure:
Functional Assays of mGluR5 Receptors
Cytosolic Calcium studies with stably transfected cells:
Chinese hamster ovary cells (CHO-K1 cells), stably transfected for inducible expression of a human metabotropic glutamate receptor mGluR5, are seeded into black clear bottom 96 well plates at a density of 35.000 cells per well. The standard growth medium used (Dulbecco's modified Eagle Medium, DMEM plus L-proline) contains the appropriate inducer isopropyl-β-D-thiogalactopyranosid (IPTG) to achieve optimal receptor expression. One day after seeding the growth medium is exchanged for reconstituted Ca-Kit (Molecular Devices, USA) and incubated for one hour. Ca-Kit is reconstituted in an assay buffer containing 20 mM HEPES pH 7.4, glutamic-pyruvate transaminase, pyridoxal phosphate and sodium pyruvate in Hank's balanced salt solution (HBBS). Agonistic compounds to the receptor elicit increases in cytosolic calcium which can be measured as increases in fluorescence signals by use of a fluorescence imaging plate reader (Molecular Devices).
as §1, §2

For assay [3], the target named is T3, metabotropic glutamate receptor (mGluR5). Description: Activity as mGluR5 modulator of prior-art compounds (test not described). The following applies: result in words.

Each structure is given as a SMILES string.

T2 sequence (P31424 21-1203): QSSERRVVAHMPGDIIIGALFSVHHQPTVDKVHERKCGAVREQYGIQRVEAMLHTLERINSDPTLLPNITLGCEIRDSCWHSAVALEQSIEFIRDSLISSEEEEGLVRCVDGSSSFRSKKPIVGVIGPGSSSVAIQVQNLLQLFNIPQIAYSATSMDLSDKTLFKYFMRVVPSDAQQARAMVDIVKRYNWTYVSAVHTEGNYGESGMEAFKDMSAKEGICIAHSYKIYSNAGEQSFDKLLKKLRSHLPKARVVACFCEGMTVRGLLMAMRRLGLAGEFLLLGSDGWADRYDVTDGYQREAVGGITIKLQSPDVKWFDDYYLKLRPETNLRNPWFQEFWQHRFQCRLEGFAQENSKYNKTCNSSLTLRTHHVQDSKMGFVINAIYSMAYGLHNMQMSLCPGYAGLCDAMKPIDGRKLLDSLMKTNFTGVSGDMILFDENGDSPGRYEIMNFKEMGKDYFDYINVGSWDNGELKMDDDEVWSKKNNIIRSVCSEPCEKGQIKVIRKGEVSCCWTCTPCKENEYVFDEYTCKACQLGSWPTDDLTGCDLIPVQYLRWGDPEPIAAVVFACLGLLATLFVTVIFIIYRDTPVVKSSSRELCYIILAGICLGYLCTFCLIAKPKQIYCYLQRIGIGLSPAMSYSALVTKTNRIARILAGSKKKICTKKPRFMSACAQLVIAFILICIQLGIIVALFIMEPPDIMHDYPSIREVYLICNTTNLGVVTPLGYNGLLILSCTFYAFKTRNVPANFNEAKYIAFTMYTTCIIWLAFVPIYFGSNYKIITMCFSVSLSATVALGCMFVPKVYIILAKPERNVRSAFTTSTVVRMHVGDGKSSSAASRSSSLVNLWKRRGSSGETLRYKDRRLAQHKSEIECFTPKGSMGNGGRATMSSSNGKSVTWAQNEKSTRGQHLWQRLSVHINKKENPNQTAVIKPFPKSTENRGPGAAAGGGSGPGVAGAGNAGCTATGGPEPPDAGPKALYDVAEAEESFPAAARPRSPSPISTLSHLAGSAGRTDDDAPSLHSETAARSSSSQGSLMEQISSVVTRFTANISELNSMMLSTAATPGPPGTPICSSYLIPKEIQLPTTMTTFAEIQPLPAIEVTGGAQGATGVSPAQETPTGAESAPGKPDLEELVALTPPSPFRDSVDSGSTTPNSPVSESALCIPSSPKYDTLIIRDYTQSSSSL
T1 sequence (P31424 21-1203): as above
T3 sequence (P41594 21-1212): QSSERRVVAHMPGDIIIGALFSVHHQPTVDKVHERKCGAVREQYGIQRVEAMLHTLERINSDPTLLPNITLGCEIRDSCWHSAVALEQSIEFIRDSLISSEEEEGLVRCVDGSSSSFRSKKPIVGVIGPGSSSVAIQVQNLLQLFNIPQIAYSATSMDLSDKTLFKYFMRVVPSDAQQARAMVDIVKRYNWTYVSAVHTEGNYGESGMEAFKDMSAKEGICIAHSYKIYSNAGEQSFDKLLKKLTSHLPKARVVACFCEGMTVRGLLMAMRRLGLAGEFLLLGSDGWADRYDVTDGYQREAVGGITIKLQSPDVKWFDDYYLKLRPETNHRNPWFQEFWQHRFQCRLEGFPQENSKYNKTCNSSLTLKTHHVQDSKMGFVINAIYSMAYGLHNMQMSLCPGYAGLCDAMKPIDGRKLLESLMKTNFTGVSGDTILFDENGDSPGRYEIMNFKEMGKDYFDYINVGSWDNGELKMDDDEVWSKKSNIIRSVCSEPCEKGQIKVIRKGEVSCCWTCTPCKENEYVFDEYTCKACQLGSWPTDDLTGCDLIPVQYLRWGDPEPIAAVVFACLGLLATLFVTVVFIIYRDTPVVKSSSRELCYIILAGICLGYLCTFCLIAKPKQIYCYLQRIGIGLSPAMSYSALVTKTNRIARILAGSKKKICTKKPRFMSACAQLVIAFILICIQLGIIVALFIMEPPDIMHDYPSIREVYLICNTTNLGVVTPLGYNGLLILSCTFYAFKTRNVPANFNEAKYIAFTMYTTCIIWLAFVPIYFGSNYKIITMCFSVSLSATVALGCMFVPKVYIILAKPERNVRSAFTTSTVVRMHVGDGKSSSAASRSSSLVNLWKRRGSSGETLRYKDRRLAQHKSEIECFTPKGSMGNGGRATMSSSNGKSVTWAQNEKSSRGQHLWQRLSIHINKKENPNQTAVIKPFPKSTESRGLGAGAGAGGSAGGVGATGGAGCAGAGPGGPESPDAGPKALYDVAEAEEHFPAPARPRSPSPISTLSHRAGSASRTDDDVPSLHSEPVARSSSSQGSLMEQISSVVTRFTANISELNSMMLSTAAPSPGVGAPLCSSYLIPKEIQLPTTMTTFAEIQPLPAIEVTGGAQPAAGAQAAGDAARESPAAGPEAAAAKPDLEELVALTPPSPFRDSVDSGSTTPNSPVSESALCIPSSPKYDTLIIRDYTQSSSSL

With `Cc1ccc2n1CCN(C(=O)c1cc3ncc(Cl)cn3n1)C2C` (stereo not drawn) [Example 5, (6-Chloro-pyrazolo[1,5-a]pyrimidin-2-yl)-(1,6-dimethyl-3,4-dihydro-1H-pyrrolo[1,2-a]pyrazin-2-yl)-methanone], the IC50 was 87.3 nM on mGluR5 receptors, 274 nM in assay [1] and 327 nM in assay [2].
Take `CN1c2ccccc2CCN1C(=O)c1cc2ncc(Br)cn2n1` [Example 182, (6-Bromo-pyrazolo[1,5-a]pyrimidin-2-yl)-(1-methyl-3,4-dihydro-1H-cinnolin-2-yl)-methanone]: the IC50 on mGluR5 receptors turned out to be 63.7 nM; in assay [1] it was 281 nM; in assay [2], 189 nM.
For `Cc1ccc2n1CCN(C(=O)c1cc3ncc(Br)cn3n1)C2C` (stereo not drawn) [Example 7, (6-Bromo-pyrazolo[1,5-a]pyrimidin-2-yl)-(1,6-dimethyl-3,4-dihydro-1H-pyrrolo[1,2-a]pyrazin-2-yl)-methanone], the IC50 at mGluR5 receptors amounted to 50 nM; in assay [1] it was 219 nM; in assay [2], 222 nM.
For `CC1c2ccc(Br)n2CCN1C(=O)c1cc2ncc(Cl)cn2n1` (stereo not drawn) [Example 37, (6-Bromo-1-methyl-3,4-dihydro-1H-pyrrolo[1,2-a]pyrazin-2-yl)-(6-chloro-pyrazolo[1,5-a]pyrimidin-2-yl)-methanone], the IC50 was found to be 17 nM at mGluR5 receptors, 73 nM in assay [1] and 34.2 nM in assay [2].
The like results for `CC1c2ccc(Br)n2CCN1C(=O)c1cc2ncc(Br)cn2n1` (stereo not drawn) [Example 39, (6-Bromo-1-methyl-3,4-dihydro-1H-pyrrolo[1,2-a]pyrazin-2-yl)-(6-bromo-pyrazolo[1,5-a]pyrimidin-2-yl)-methanone] were, in that order, 15 nM, 54.9 nM and 74.5 nM.
As for `O=C(c1cc2ncc(Br)cn2n1)N1CCOCC1` [Example B310, (6-Bromopyrazolo[1,5-a]pyrimidin-2-yl)-morpholin-4-yl-methanone], the “activity as metabotropic glutamate receptor (mGluR5) modulator” value (from here on “activity”) in assay [3] was “no particular activity”.
As to `CN1c2ccccc2CCN1C(=O)c1cc2ncc(Cl)cn2n1` [Example 181, (6-Chloro-pyrazolo[1,5-a]pyrimidin-2-yl)-(1-methyl-3,4-dihydro-1H-cinnolin-2-yl)-methanone], the IC50 at mGluR5 receptors amounted to 82.3 nM; in assay [1], 247 nM; in assay [2] it was 166 nM.
For `Cc1ccc2n1CCN(C(=O)c1cc3ncc(Br)cn3n1)[C@@H]2C` [(R)-(6-Bromo-pyrazolo[1,5-a]pyrimidin-2-yl)-(1,6-dimethyl-3,4-dihydro-1H-pyrrolo[1,2-a]pyrazin-2-yl)-methanone] the same measures were 34.3 nM, 74 nM and 118 nM.
Consider `C[C@@H]1c2ccc(Cl)n2CCN1C(=O)c1cc2ncc(Br)cn2n1` [(R)-(6-Bromo-pyrazolo[1,5-a]pyrimidin-2-yl)-(6-chloro-1-methyl-3,4-dihydro-1H-pyrrolo[1,2-a]pyrazin-2-yl)-methanone], for which the IC50 on mGluR5 receptors stood at 7.8 nM; in assay [2], 24.5 nM.
On to `O=C(c1cc2ncc(Br)cn2n1)N1CCCCC1` [Example B308, (6-Bromopyrazolo[1,5-a]pyrimidin-2-yl)-piperidin-1-yl-methanone], for which the “activity” value in assay [3] is listed as “no particular activity”.
Regarding `CC1c2ccc(Cl)n2CCN1C(=O)c1cc2ncc(Br)cn2n1` (stereo not drawn) [Example 31, (6-Chloro-1-methyl-3,4-dihydro-1H-pyrrolo[1,2-a]pyrazin-2-yl)-(6-bromo-pyrazolo[1,5-a]pyrimidin-2-yl)-methanone], the IC50 on mGluR5 receptors came to 22.5 nM; in assay [1] it was 44.5 nM; in assay [2] it was 84.4 nM.
With `O=C(c1cc2ncc(Br)cn2n1)N1CCc2ccccc2C1` [M, (6-Bromo-pyrazolo[1,5-a]pyrimidin-2-yl)-(1,2,3,4-tetrahydro-isoquinolin-2-yl)-methanone], in assay [3], the “activity” value is reported as “only a limited activity” and the selectivity result is listed as “not selective”.
On to `CC1c2ccc(Cl)n2CCN1C(=O)c1cc2ncc(Cl)cn2n1` (stereo not drawn) [Example 29, (6-Chloro-1-methyl-3,4-dihydro-1H-pyrrolo[1,2-a]pyrazin-2-yl)-(6-chloro-pyrazolo[1,5-a]pyrimidin-2-yl)-methanone], for which the IC50 on mGluR5 receptors was 21.9 nM; in assay [1], 42 nM; in assay [2], 91 nM.
